Consider four compounds from patent US20260226037A1, “MICROTUBULE TARGETING AGENTS” (ARIEL SCIENTIFIC INNOVATIONS LTD., priority 2022, published 2026).

Assay [1] relates to RPMI 8226 cells. As to the kind of experiment: XTT cytotoxicity, RPMI 8226. As to conditions: Homo sapiens; RPMI 8226, multiple myeloma, non-resistant; read-out: IC50. Format: cell-based. The method, then: (§1) The cytotoxic activity of the novel family was evaluated against various tumor cells, including myeloma cells, acute lymphoblastic leukemia cells, acute monocytic leukemia cells, chronic myelogenous leukemia cells, pancreatic cancer cells, breast cancer cells, uterine sarcoma cells, cervix adenocarcinoma cells, ovary cancer cells, melanoma cells, osteosarcoma cells, prostate cancer cells, lung cancer cells, neuroblastoma cells and colorectal adenocarcinoma cells by XTT assay.
For orientation: Formazan colour is commonly taken as a measure of viable cells.

The test system of assay [2] is RPMI-DOX40 cells. Description: XTT cytotoxicity, RPMI-DOX40. Format: cell-based. As to conditions: for IC50: RPMI-DOX40, multiple myeloma, P-gp overexpression, read-out: IC50; for IC50 ratio between resistant and non-resistant cells: RPMI-DOX40 / RPMI 8226. As for the experimental part: as §1
Assay [3] has as its system RPMI-LR5 cells. Description: XTT cytotoxicity, RPMI-LR5. It is filed as cell-based. As to conditions: for IC50: RPMI-LR5, multiple myeloma, melphalan resistant, read-out: IC50; for IC50 ratio between resistant and non-resistant cells: RPMI-LR5 / RPMI 8226. The method, then:
as §1

In assay [4] the test system is RPMI-MR20 cells. As to the kind of experiment: XTT cytotoxicity, RPMI-MR20. Format: cell-based. As to conditions: for IC50: RPMI-MR20, mitoxantrone resistant, read-out: IC50; for IC50 ratio between resistant and non-resistant cells: RPMI-MR20 / RPMI 8226. As for the experimental part: as §1
Assay [5] relates to MM1.S cells. Description: XTT cytotoxicity, MM1.S. Format: cell-based. As to conditions: Homo sapiens, multiple myeloma, non-resistant, read-out: IC50. The method, then:
as §1

Assay [6] concerns MM1.R cells. As to the kind of experiment: XTT cytotoxicity, MM1.R. As to conditions: for IC50 ratio between resistant and non-resistant cells: MM1.R / MM1.S; for IC50: MM.1R, MM1.R, multiple myeloma, dexamethasone resistant, read-out: IC50. Format: cell-based. The method, then:
as §1

For assay [7], the system named is NALM6 cells. As to the kind of experiment: XTT cytotoxicity, NALM6. Format: cell-based. As to conditions: Homo sapiens, NALM-6; NALM6, acute lymphoblastic leukemia, non-resistant; read-out: IC50. The method, then: as §1
(§2) Most tubulin-binding anticancer drugs currently used in the clinic are substrates for Pgp effux pump. […] The inventors tested the viability of NALM6 acute lymphoblastic leukemia cell line (ALL) and its corresponding doxorubicin resistant N6/ADR cell line that overexpress Pgp glycoprotein and has cross-resistance to vincristine.

For assay [8], the system named is N6/ADR cells. Description: XTT cytotoxicity, N6/ADR. As to conditions: for IC50 ratio between resistant and non-resistant cells: N6/ADR / NALM6; for IC50: N6/ADR, acute lymphoblastic leukemia, P-gp overexpression, read-out: IC50. It is filed as cell-based. The method, then:
as §1, §2

For assay [9], the system named is MCF7 cells. Description: XTT cytotoxicity, MCF7. It is filed as cell-based. As to conditions: Homo sapiens; MCF7, breast adenocarcinoma, non-resistant. As for the experimental part:
as §1

Assay [10] concerns MCF7-VP cells. As to the kind of experiment: XTT cytotoxicity, MCF7-VP. It is filed as cell-based. As to conditions: for IC50: Homo sapiens, MCF7-VP, breast adenocarcinoma, MRP overexpression; for IC50 ratio between resistant and non-resistant cells: MCF7-VP / MCF7. As for the experimental part: as §1
For assay [11], the system named is MES-SA cells. As to the kind of experiment: XTT cytotoxicity, MES-SA. Format: cell-based. As to conditions: Homo sapiens, poorly differentiated uterine sarcoma, non-resistant. The method, then:
as §1

In assay [12] the test system is MES-SA/DX5 cells. As to the kind of experiment: XTT cytotoxicity, MES-SA/DX5. Format: cell-based. As to conditions: for IC50: Homo sapiens, MES-SA/DX5, uterine sarcoma, P-gp overexpression; for IC50 ratio between resistant and non-resistant cells: MES-SA/DX5 / MES-SA. The method, then:
as §1

For assay [13], the system named is purified tubulin. As to the kind of experiment: Tubulin polymerization, cell-free assay. As to conditions: tubulin 2.00 mg/mL; 1, 15 and 30 μM; 37° C., 100 min; vs vehicle. It is filed as biochemical. As for the experimental part:
The effect of the compounds on their ability to inhibit tubulin polymerization, was tested against a vehicle control by evaluating polymerization of purified tubulin in a cell-free assay where tubulin (2.00 mg/mL) was exposed to vehicle control or 1, 15 and 30 μM of the compounds (n=2). Polymerizations were tracked by an increase in fluorescence excitation wavelength is 340-360 nm and emission wavelength at 410-460 nm. Fluorescence was monitored at 37° C. every 30 sec for 100 min.

The test system of assay [14] is colchicine binding site on tubulin protein. Description: EBI competition assay, RPMI-8226 cells. It is filed as cell-based. As to conditions: for prevention of covalent binding of EBI to the colchicine binding site: RPMI-8226 living cells.
The subject of assay [15] is RPMI8226 cells. Description: Cell cycle distribution by flow cytometry. It is filed as cell-based. As to conditions: 6 hours; IC50, IC50x2.5 and IC50x5 concentrations. As for the experimental part:
Cell cycle arrest is a shared consequence of MTAs treatment. The effects of cell cycle distribution were determined in RPMI8226 cells treated for 6 and 18 hours with a range of concentrations of the molecules. The cells were stained with propidium iodide and cell cycle distribution was measured using a cytoFLEX flow cytometer.
(In general: Flow cytometry measures light scatter and fluorescence of single cells or particles in a stream.)

In general, IC50 refers to the concentration at which inhibition is half-maximal.

Structures are written as SMILES.

Take `Cc1c(C(=O)OCCCCO)[nH]c2c1C(=O)CC(c1ncco1)C2` (stereo not shown) [SMS096, 4-hydroxybutyl 3-methyl-6-(oxazol-2-yl)-4-oxo-4,5,6,7-tetrahydro-1H-indole-2-carboxylate]: the IC50 in assay [1] was 1090 nM; in assay [2], 1180 nM; in [3] it was 1130 nM; in [4] it was more than 1800 nM; in assay [5] it was 748 nM; in assay [6] it was 1080 nM. For the same compound, the IC50 in [7] worked out at 624 nM; in assay [8], 54 nM; in assay [9], 7840 nM; in [10], 5740 nM; in assay [11] it was 1240 nM; in [12], 1430 nM. In addition, the “IC50 ratio between resistant and non-resistant cells” value in assay [2] is recorded as 1.081; in assay [3], 1.031; in [4] it was more than 1.647; in assay [6], 1.447; in assay [8] it was 0.087; in assay [10], 0.732. In assay [12], the “IC50 ratio between resistant and non-resistant cells” value was found to be 1.153. Moreover, the “rate of tubulin polymerization” value in assay [13] is on record as “inhibited the rate of tubulin polymerization in a concentration-dependent manner”. Moreover, the “relative affinity for the colchicine binding site” value in assay [14] (RPMI-8226 cells, EBI competition) is “higher affinity than SMS001, SMS182, SMS088 and SMS229”. In addition, the “prevention of covalent binding of EBI to the colchicine binding site” value (“prevention of covalent binding of EBI” for short) in [14] is recorded as “prevented the covalent binding of EBI to the colchicine binding site”. Also, the cell cycle arrest entry in assay [15] is listed as “cell cycle arrest in G2M phase”.
`Cc1c(C(=O)OC2CCCC2)[nH]c2c1C(=O)CC(c1ncco1)C2` (stereo not shown) [SMS101, cyclopentyl 3-methyl-6-(oxazol-2-yl)-4-oxo-4,5,6,7-tetrahydro-1H-indole-2-carboxylate]: the IC50 in assay [1] was 90 nM; in [2], 77 nM; in assay [3], 73 nM; in [4], 99 nM; in assay [5], 129 nM; in assay [6], 510 nM. For the same compound, the IC50 came out at 48 nM in assay [7]; 42 nM in assay [8]; 11900 nM in [9]; 351 nM in [10]; 186 nM in assay [11]; 213 nM in assay [12]. Besides, the “IC50 ratio between resistant and non-resistant cells” value in assay [2] was determined as 0.856; in [3] it was 0.811; in assay [4], 1.100; in assay [6] it was 3.953; in [8] it was 0.875; in [10], 0.029. The “IC50 ratio between resistant and non-resistant cells” value in assay [12] turned out to be 1.145. In [13], the “rate of tubulin polymerization” value was “inhibited the rate of tubulin polymerization in a concentration-dependent manner”. In addition, the “prevention of covalent binding of EBI” value in assay [14] was “prevented the covalent binding of EBI to the colchicine binding site”. Moreover, the cell cycle arrest entry in assay [15] is recorded as “cell cycle arrest in G2M phase”.
As to `CCCCCOC(=O)c1[nH]c2c(c1C)C(O)CC(c1ncco1)C2` (stereo not shown) [SMS108, pentyl-4-hydroxy-3-methyl-6-(oxazol-2-yl)-4,5,6,7-tetrahydro-1H-indole-2-carboxylate], the half-maximal inhibitory concentration (IC50) in [1] amounted to 516 nM; in assay [2], 498 nM; in [3] it was 427 nM; in assay [4], 388 nM; in assay [5] it was 735 nM; in assay [6], 1200 nM. Moreover, the concentration for half-maximal inhibition (IC50) came to 345 nM in [7]; 330 nM in assay [8]; 7120 nM in [9]; 5900 nM in assay [10]; 700 nM in [11]; 490 nM in assay [12]. Moreover, the “IC50 ratio between resistant and non-resistant cells” value in assay [2] amounted to 0.965; in [3], 0.828; in [4] it was 0.752; in [6], 1.633; in assay [8], 0.957; in [10], 0.828. Besides, in assay [12], the “IC50 ratio between resistant and non-resistant cells” value worked out at 0.700. In addition, the “rate of tubulin polymerization” value in assay [13] is “inhibited the rate of tubulin polymerization in a concentration-dependent manner”. The “prevention of covalent binding of EBI” value in assay [14] is given as “did not prevent the covalent binding of EBI to the colchicine binding site”. Further, the cell cycle arrest result in assay [15] is given as “cell cycle arrest in G2M phase”.
For `Cc1c(C(=O)OCCCCO)oc2c1C(=O)CC(c1ncco1)C2` (stereo not shown) [SMS229, 4-hydroxybutyl-3-methyl-6-(oxazol-2-yl)-4-oxo-4,5,6,7-tetrahydrobenzofuran-2-carboxylate], the IC50 was 808 nM in [1]; 933 nM in assay [2]; 958 nM in assay [3]; 1550 nM in [4]; 2050 nM in [5]; more than 1600 nM in assay [6]. Also, the IC50 was 590 nM in assay [7]; 670 nM in assay [8]; 33300 nM in assay [9]; 12000 nM in assay [10]; 4560 nM in [11]; 3190 nM in [12]. Besides, the “IC50 ratio between resistant and non-resistant cells” value in assay [2] is 1.155; in assay [3], 1.186; in assay [4], 1.916; in assay [6], more than 0.779; in assay [8], 1.136; in [10] it was 0.360. Also, the “IC50 ratio between resistant and non-resistant cells” value in assay [12] is 0.700. In addition, the “rate of tubulin polymerization” value in assay [13] was “inhibited the rate of tubulin polymerization in a concentration-dependent manner”. The “prevention of covalent binding of EBI” value in assay [14] is on record as “prevented the covalent binding of EBI to the colchicine binding site”.
